Source: patent US7915050B2, “Regulatory genes for plant differentiation and growth, and use of the same” (National University Corporation Nagoya University, priority 2005, dated 2011)

Biological target: T1, AtGID1c in the presence of RGA (Arabidopsis thaliana, UniProt Q940G6)
T1 construct: made in house; host or cells: E. coli (stated for AtGID1)
T1 sequence (Q940G6 1-344): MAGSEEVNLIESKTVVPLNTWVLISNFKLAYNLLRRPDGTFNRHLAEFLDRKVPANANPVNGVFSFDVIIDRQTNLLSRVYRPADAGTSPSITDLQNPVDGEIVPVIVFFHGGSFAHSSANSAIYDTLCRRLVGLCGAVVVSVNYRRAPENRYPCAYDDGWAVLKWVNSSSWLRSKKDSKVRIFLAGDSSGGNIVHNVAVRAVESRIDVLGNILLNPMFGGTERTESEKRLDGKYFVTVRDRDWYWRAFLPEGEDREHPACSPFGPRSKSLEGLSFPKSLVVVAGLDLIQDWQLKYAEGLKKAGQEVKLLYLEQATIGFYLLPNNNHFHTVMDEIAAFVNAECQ
T1 sequence (Q9SLH3 1-587 partner): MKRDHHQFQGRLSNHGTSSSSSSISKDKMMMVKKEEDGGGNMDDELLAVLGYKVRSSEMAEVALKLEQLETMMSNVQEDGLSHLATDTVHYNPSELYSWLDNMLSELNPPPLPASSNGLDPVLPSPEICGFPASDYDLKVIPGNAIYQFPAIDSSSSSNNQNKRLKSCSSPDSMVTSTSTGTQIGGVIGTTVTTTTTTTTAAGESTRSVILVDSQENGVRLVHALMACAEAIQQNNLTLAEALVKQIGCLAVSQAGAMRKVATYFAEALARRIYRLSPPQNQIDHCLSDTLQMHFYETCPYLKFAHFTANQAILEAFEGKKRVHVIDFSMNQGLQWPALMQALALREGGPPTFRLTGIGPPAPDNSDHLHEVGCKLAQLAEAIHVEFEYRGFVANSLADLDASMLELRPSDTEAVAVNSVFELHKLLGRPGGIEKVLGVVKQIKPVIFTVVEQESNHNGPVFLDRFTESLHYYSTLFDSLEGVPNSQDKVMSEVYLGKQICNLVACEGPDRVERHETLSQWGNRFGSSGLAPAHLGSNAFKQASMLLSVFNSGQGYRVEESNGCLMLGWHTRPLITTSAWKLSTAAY
Assay: Scatchard analysis of AtGID1c-GA binding in the presence of RGA
Procedure: Panel A) depicts AtGID1-AtDELLA interaction in the presence of GA in two types of yeast hybrid (Y2H) assays. Each AtGID1 was used as a bait while AtDELLA was a prey. GA4 (10^−5 M) was added to the medium. The bars indicates β-galactosidase activity when o-nitrophenol-β-D-galactopyranoside was used as a substrate (Assay B). The growth of each transformant in the defined medium for 2 days (Assay A) is shown beneath of each bar graph. The experiment was carried out in quadruplicate. The SD value shown in the figure was determined from three measurements. Panel B) depicts the dose response in AtGID1-RGA interaction in Assay B of Y2H. GA4 (10^−5 to 10^−9 M) was added to the medium. The experiment was conducted in […]. The SD value shown in the figure was determined from three measurements. Panel C) depicts the results of an evaluation of the in vitro GA-binding potency of AtGID1 using AtDELLA. […] GAI (G) or RGA (R) was added, and then the GA-binding activity in each reaction mixture was measured according to the standard method. […] The SD value was determined from three measurements. […]
Next, whether AtDELLAs exert some kind of influence on the GA-binding activity of AtGID1s was examined in vitro. After labeled 16,17-dihydro-GA4 and AtGID1s were combined, AtDELLAs were added to the solutions, and the GA-binding activity was measured. […]

CC1C[C@]23C[C@H]1CCC2[C@]12CC[C@H](O)[C@](C)(C(=O)O1)[C@H]2[C@@H]3C(=O)O (stereo partly shown) [H2-GA4, 16,17-dihydro-GA4]
Kd: 12 nM
